Measured values: ChEMBL document CHEMBL3861944 (Medchemcomm, 2016)

Tests used:
[1] = test system: ASPC1; test: Pro-apoptotic activity in human AsPC1 cells assessed as late apoptotic cells at 1 uM after 24 hrs by annexin V/propidium iodide staining-based flow cytometric method (reference value: 0.8 +/- 0.1%); type: functional
[2] = Cell cycle arrest in human THP1 cells assessed as accumulation at G0/G1 phase at 0.5 uM after 24 hrs by flow cytometric method (reference value: 51 +/- 6%); type: functional, cell-based; conditions: THP-1
[3] = test system: THP-1; test: Pro-apoptotic activity in human THP1 cells assessed as necrotic cells at 0.75 uM after 24 hrs by annexin V/propidium iodide staining-based flow cytometric method relative to control; type: functional
[4] = Cell cycle arrest in human AsPC1 cells assessed as accumulation at S phase at 75 uM after 24 hrs by flow cytometric method (reference value: 23 +/- 3%); type: functional, cell-based
[5] = Cell cycle arrest in human THP1 cells assessed as accumulation at G2/M phase at 3 uM after 24 hrs by flow cytometric method (reference value: 32 +/- 1%); type: functional, cell-based; conditions: THP-1
[6] = test system: ASPC1; test: Pro-apoptotic activity in human AsPC1 cells assessed as necrotic cells at 75 uM after 24 hrs by annexin V/propidium iodide staining-based flow cytometric method (reference value: 2.1 +/- 0.4%); type: functional
[7] = Cell cycle arrest in human THP1 cells assessed as accumulation at S phase after 24 hrs by flow cytometric method; type: functional, cell-based; conditions: THP-1
[8] = test system: THP-1; test: Pro-apoptotic activity in human THP1 cells assessed as necrotic cells at 10 uM after 24 hrs by annexin V/propidium iodide staining-based flow cytometric method relative to control; type: functional
[9] = test system: ASPC1; test: Pro-apoptotic activity in human AsPC1 cells assessed as early apoptotic cells at 75 uM after 24 hrs by annexin V/propidium iodide staining-based flow cytometric method (reference value: 0.8 +/- 0.1%); type: functional
[10] = Cell cycle arrest in human AsPC1 cells assessed as accumulation at S phase at 1 uM after 24 hrs by flow cytometric method (reference value: 23 +/- 3%); type: functional, cell-based
[11] = test system: ASPC1; test: Induction of pro-differentiation of human AsPC1 cells assessed as CD44 expression at 10 uM after 3 days by immunostaining-based micro-capillary flow cytometric method (reference value: 87 +/- 1%); type: functional
[12] = Cell cycle arrest in human AsPC1 cells assessed as accumulation at S phase at 50 uM after 24 hrs by flow cytometric method (reference value: 23 +/- 3%); type: functional, cell-based
[13] = test system: ASPC1; test: Pro-apoptotic activity in human AsPC1 cells assessed as late apoptotic cells at 10 uM after 24 hrs by annexin V/propidium iodide staining-based flow cytometric method (reference value: 0.8 +/- 0.1%); type: functional
[14] = test system: THP-1; test: Pro-apoptotic activity in human THP1 cells assessed as early apoptotic cells at 10 uM after 24 hrs by annexin V/propidium iodide staining-based flow cytometric method (reference value: 0.4 +/- 0.1%); type: functional
[15] = test system: THP-1; test: Pro-apoptotic activity in human THP1 cells assessed as early apoptotic cells at 3 uM after 24 hrs by annexin V/propidium iodide staining-based flow cytometric method (reference value: 0.4 +/- 0.1%); type: functional
[16] = Cell cycle arrest in human AsPC1 cells assessed as accumulation at G2/M phase at 50 uM after 24 hrs by flow cytometric method (reference value: 29 +/- 5%); type: functional, cell-based
[17] = test system: THP-1; test: Pro-apoptotic activity in human THP1 cells assessed as late apoptotic cells at 1 uM after 24 hrs by annexin V/propidium iodide staining-based flow cytometric method (reference value: 0.4 +/- 0.1%); type: functional
[18] = test system: ASPC1; test: Pro-apoptotic activity in human AsPC1 cells assessed as early apoptotic cells at 30 uM after 24 hrs by annexin V/propidium iodide staining-based flow cytometric method (reference value: 0.8 +/- 0.1%); type: functional
[19] = Cell cycle arrest in human AsPC1 cells assessed as accumulation at G0/G1 phase at 100 uM after 24 hrs by flow cytometric method (reference value: 48 +/- 7%); type: functional, cell-based
[20] = Cell cycle arrest in human AsPC1 cells assessed as accumulation at G0/G1 phase at 30 uM after 24 hrs by flow cytometric method (reference value: 48 +/- 7%); type: functional, cell-based
[21] = Cell cycle arrest in human THP1 cells assessed as accumulation at S phase at 1 uM after 24 hrs by flow cytometric method (reference value: 16 +/- 2%); type: functional, cell-based; conditions: THP-1
[22] = Cell cycle arrest in human THP1 cells assessed as accumulation at G2/M phase at 0.5 uM after 24 hrs by flow cytometric method (reference value: 32 +/- 1%); type: functional, cell-based; conditions: THP-1
[23] = test system: ASPC1; test: Pro-apoptotic activity in human AsPC1 cells assessed as late apoptotic cells at 30 uM after 24 hrs by annexin V/propidium iodide staining-based flow cytometric method (reference value: 0.8 +/- 0.1%); type: functional
[24] = test system: ASPC1; test: Pro-apoptotic activity in human AsPC1 cells assessed as necrotic cells at 10 uM after 24 hrs by annexin V/propidium iodide staining-based flow cytometric method (reference value: 2.1 +/- 0.4%); type: functional
[25] = Cell cycle arrest in human AsPC1 cells assessed as accumulation at G2/M phase at 100 uM after 24 hrs by flow cytometric method (reference value: 29 +/- 5%); type: functional, cell-based
[26] = Cell cycle arrest in human AsPC1 cells assessed as accumulation at G0/G1 phase at 1 uM after 24 hrs by flow cytometric method (reference value: 48 +/- 7%); type: functional, cell-based
[27] = test system: ASPC1; test: Pro-apoptotic activity in human AsPC1 cells assessed as late apoptotic cells at 50 uM after 24 hrs by annexin V/propidium iodide staining-based flow cytometric method (reference value: 0.8 +/- 0.1%); type: functional
[28] = test system: ASPC1; test: Pro-apoptotic activity in human AsPC1 cells assessed as necrotic cells at 100 uM after 24 hrs by annexin V/propidium iodide staining-based flow cytometric method (reference value: 2.1 +/- 0.4%); type: functional
[29] = test system: ASPC1; test: Pro-apoptotic activity in human AsPC1 cells assessed as early apoptotic cells at 10 uM after 24 hrs by annexin V/propidium iodide staining-based flow cytometric method (reference value: 0.8 +/- 0.1%); type: functional
[30] = test system: THP-1; test: Pro-apoptotic activity in human THP1 cells assessed as necrotic cells at 30 uM after 24 hrs by annexin V/propidium iodide staining-based flow cytometric method relative to control; type: functional
[31] = Cell cycle arrest in human THP1 cells assessed as accumulation at G0/G1 phase at 10 uM after 24 hrs by flow cytometric method (reference value: 51 +/- 6%); type: functional, cell-based; conditions: THP-1
[32] = test system: ASPC1; test: Pro-apoptotic activity in human AsPC1 cells assessed as late apoptotic cells at 100 uM after 24 hrs by annexin V/propidium iodide staining-based flow cytometric method (reference value: 0.8 +/- 0.1%); type: functional
[33] = Cell cycle arrest in human AsPC1 cells assessed as accumulation at S phase at 100 uM after 24 hrs by flow cytometric method (reference value: 23 +/- 3%); type: functional, cell-based
[34] = Cell cycle arrest in human AsPC1 cells assessed as accumulation at G2/M phase at 10 uM after 24 hrs by flow cytometric method (reference value: 29 +/- 5%); type: functional, cell-based
[35] = Cell cycle arrest in human THP1 cells assessed as accumulation at G2/M phase at 30 uM after 24 hrs by flow cytometric method (reference value: 32 +/- 1%); type: functional, cell-based; conditions: THP-1

For `NC(=[Se])N/N=C/c1cccc2cccnc12`, the Activity [1] was 0.4%, the Activity [2] was 50% and the Activity [3] was 0.7%. It also gave an Activity [4] of 22.3%, an Activity [5] of 30% and an Activity [6] of 4.1%. The Activity [7] was “Dose-dependent effect”, the Activity [8] was 4% and the Activity [9] was 0.6%. For the same compound, the Activity [10] was 35.5%, the Activity [11] was 77% and the Activity [12] was 26%. The Activity [13] was 0.8%, the Activity [14] was 6% and the Activity [15] was 2.2%. For the same compound, the Activity [16] was 8.6%, the Activity [17] was 2% and the Activity [18] was 0%. For the same compound, the Activity [19] was 64.1%, the Activity [20] was 69.2% and the Activity [21] was 26%. For the same compound, the Activity [22] was 27%, the Activity [23] was 1.1% and the Activity [24] was 1.6%. For the same compound, the Activity [25] was 17%, the Activity [26] was 53.8% and the Activity [27] was 0.3%. It also gave an Activity [28] of 5.5%, an Activity [29] of 0.4% and an Activity [30] of 4%. The Activity [31] was 45%, the Activity [32] was 26.5% and the Activity [33] was 18.8%. It also gave an Activity [34] of 16.7% and an Activity [35] of 26%.
